# Data published in patent US20260265238A1, “COMPOUNDS AND PHARMACEUTICAL COMPOSITIONS THAT DEGRADE SWI/SNF-RELATED MATRIX-ASSOCIATED ACTIN-DEPENDENT REGULATOR OF CHROMATIN SUBFAMILY A” (Plexium, Inc., priority 2023, published 2026).
# What was measured:
# [1] = molecular target: T1, SMARCA4-HiBiT HeLa cells (protein which is expressed from the SMARCA4 gene) (Homo sapiens, UniProt P51532); assay: SMARCA4 degradation assay (HiBiT-fusion HeLa cell line, 24 h, luminescence); type: cell-based
# T1 construct: protein which is expressed from the SMARCA2 and SMARCA4 genes; host or cells: HeLa (SMARCA4-HiBiT engineered line)
# T1 sequence (P51532 whole entry, the tested form may be a part): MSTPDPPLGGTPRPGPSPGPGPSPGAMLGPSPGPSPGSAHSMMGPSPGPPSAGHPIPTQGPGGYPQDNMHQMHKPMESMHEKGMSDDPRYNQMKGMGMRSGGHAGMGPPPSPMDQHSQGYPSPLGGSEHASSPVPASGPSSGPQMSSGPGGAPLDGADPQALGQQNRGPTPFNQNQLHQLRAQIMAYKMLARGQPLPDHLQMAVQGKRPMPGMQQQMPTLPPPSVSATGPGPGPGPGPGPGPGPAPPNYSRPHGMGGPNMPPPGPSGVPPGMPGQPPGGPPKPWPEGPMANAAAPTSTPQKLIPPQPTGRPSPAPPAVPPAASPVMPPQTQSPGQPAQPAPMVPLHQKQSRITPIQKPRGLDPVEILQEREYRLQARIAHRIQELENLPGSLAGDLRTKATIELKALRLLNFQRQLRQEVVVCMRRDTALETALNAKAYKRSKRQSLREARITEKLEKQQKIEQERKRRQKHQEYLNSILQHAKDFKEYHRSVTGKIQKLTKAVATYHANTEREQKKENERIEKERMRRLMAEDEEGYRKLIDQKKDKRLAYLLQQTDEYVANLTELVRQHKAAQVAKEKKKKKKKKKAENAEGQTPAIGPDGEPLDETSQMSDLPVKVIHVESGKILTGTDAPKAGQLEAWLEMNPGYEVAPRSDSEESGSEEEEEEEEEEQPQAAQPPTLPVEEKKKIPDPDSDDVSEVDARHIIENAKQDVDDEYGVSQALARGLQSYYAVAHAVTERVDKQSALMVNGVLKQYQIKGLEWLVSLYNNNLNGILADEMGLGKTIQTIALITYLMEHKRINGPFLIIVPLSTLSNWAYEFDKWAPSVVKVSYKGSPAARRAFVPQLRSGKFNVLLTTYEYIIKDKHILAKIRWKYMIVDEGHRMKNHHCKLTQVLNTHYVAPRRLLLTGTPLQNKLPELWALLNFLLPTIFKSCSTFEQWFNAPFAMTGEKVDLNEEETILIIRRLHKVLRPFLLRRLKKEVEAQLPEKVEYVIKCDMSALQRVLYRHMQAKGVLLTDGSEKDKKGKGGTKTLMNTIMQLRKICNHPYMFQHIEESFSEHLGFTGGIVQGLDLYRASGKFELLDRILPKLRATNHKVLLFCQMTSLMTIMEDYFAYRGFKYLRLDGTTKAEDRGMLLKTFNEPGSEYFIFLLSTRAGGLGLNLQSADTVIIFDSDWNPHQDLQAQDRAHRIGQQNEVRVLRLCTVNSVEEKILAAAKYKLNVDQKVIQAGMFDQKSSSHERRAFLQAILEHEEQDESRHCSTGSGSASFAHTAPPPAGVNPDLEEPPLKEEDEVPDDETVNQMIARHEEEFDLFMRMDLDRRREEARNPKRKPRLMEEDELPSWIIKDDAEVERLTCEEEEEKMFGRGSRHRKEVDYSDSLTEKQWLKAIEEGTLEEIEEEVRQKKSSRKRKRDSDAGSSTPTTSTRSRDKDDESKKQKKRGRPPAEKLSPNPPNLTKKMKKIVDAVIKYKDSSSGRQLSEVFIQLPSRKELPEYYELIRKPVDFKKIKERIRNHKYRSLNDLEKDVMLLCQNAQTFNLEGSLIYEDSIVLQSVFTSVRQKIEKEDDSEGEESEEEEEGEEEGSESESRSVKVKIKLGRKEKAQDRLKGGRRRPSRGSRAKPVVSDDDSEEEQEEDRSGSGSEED
# In short: (§1)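 SMARCA2- or SMARCA4-HiBiT HeLa cells seeded overnight at 37° C, then given compound as a 10-point dilution (typically 10 μM to 300 pM) for 24 h at 37° C. Protein level read by HiBiT lytic detection luminescence; DC50 from dose-response curves; degradation also scored at 1 μM.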
# [2] = molecular target: T2, SMARCA2-HiBiT HeLa cells (protein which is expressed from the SMARCA2 gene) (Homo sapiens, UniProt P51531); assay: SMARCA2 degradation assay (HiBiT-fusion HeLa cell line, 24 h, luminescence); type: cell-based
# T2 construct: protein which is expressed from the SMARCA2 and SMARCA4 genes; host or cells: HeLa (SMARCA2-HiBiT engineered line)
# T2 sequence (P51531 whole entry, the tested form may be a part): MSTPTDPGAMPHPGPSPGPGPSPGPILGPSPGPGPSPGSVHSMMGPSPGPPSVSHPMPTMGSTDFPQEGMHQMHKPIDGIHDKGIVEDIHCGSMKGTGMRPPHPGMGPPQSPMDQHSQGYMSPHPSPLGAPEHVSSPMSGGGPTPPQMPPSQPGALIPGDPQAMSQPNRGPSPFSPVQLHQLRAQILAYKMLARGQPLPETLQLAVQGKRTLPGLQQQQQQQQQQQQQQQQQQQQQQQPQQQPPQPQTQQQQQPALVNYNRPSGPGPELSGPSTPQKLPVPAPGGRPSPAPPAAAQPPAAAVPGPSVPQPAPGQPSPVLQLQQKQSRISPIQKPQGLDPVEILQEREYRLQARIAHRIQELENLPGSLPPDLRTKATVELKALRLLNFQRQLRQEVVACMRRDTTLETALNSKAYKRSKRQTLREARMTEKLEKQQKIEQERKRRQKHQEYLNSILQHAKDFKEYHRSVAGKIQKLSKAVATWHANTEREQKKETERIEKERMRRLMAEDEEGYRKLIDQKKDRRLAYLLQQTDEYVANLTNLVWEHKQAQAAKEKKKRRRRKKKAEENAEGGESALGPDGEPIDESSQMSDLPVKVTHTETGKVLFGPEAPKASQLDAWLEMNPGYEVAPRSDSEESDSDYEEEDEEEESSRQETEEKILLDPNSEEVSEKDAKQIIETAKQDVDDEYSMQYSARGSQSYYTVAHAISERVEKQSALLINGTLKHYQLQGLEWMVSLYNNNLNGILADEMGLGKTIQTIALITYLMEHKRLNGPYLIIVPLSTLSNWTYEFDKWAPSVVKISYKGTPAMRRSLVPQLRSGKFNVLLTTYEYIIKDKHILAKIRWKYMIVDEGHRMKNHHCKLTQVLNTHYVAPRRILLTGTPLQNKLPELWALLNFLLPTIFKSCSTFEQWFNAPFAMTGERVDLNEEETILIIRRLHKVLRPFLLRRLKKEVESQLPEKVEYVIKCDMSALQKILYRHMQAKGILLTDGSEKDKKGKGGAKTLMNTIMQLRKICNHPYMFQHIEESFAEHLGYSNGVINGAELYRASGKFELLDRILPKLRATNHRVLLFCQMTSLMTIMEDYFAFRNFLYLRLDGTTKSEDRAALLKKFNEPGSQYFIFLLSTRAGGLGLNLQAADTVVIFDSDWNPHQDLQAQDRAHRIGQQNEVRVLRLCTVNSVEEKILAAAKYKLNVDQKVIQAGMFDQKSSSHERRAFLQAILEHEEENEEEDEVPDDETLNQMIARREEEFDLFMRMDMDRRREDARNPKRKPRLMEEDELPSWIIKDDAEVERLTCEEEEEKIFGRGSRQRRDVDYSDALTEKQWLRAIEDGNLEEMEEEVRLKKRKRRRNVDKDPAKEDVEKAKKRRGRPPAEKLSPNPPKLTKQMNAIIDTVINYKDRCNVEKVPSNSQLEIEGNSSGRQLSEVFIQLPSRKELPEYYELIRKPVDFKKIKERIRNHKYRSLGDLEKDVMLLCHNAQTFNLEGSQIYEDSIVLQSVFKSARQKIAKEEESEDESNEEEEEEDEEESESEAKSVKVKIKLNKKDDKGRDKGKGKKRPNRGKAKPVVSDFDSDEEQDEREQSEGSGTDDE
# In short: as §1
DC50 [1] [nM],inhibition at 1 µM [1] [%],DC50 [2] [nM],SMARCA2 % Degradation @ 1 μM [2],SMILES
500 to 5000,< 30,500 to 5000,++ (++=30-70%),"Nc1nnc(-c2ccccc2O)cc1N1CCCN(c2ccnc(C#CCN3CCCC(O)C3)n2)CC1 (stereo not shown) [Compound P-361, 1-[3-(4-{4-[3-amino-6-(o-hydroxyphenyl)-4-pyridazinyl]-1,4-diazepan-1-yl}-2-pyrimidinyl)-2-propynyl]-3-piperidinol]"
50 to 500,< 30,50 to 500,++ (++=30-70%),"Nc1nnc(-c2ccccc2O)cc1N1CCN(c2ccnc(C#CCNC(=O)c3cccnn3)n2)CC1 [Compound P-5, N-[3-(4-{4-[3-amino-6-(2-hydroxyphenyl)pyridazin-4-yl]piperazin-1-yl}pyrimidin-2-yl)prop-2-yn-1-yl]pyridazine-3-carboxamide]"
500 to 5000,30 to 70,500 to 5000,++ (++=30-70%),"CC(C)NC(=O)NCC#Cc1nccc(N2CCCN(c3cc(-c4ccccc4O)nnc3N)CC2)n1 [Compound P-327, 0-[6-amino-5-(4-{2-[3-(3-isopropylureido)-1-propynyl]-4-pyrimidinyl}-1,4-diazepan-1-yl)-3-pyridazinyl]phenol]"
500 to 5000,30 to 70,500 to 5000,++ (++=30-70%),"CC1CCN(c2ccnc(C#CCNC(=O)c3cc4ncccn4n3)n2)CCN1c1cc(-c2ccccc2O)nnc1N (stereo not shown) [Compound P-19, N-(3-(4-(4-(3-amino-6-(2-hydroxyphenyl)pyridazin-4-yl)-5-methyl-1,4-diazepan-1-yl)pyrimidin-2-yl)prop-2-yn-1-yl)pyrazolo[1,5-a]pyrimidine-2-carboxamide]"
50 to 500,30 to 70,50 to 500,++ (++=30-70%),"COCC#Cc1nccc(N2CCCN(c3cc(-c4ccccc4O)nnc3N)CC2)n1 [Compound P-342, 0-(6-amino-5-{4-[2-(3-mcthoxy-1-propynyl)-4-pyrimidinyl]-1,4-diazepan-1-yl}-3-pyridazinyl)phenol]"
500 to 5000,30 to 70,500 to 5000,++ (++=30-70%),"Nc1nnc(-c2ccccc2O)cc1N1CCCN(c2ccnc(C#CCNc3cc4ncccn4n3)n2)CC1 [Compound P-120, 2-(6-amino-5-(4-(2-(3-(pyrazolo[1,5-a]pyrimidin-2-ylamino)prop-1-yn-1-yl)pyrimidin-4-yl)-1,4-diazepan-1-yl)pyridazin-3-yl)phenol]"
50 to 500,30 to 70,50 to 500,+++ (+++=>70%),"CC[C@H](C)NCC#Cc1nccc(N2CCCN(c3cc(-c4ccccc4O)nnc3N)CC2)n1 [Compound P-257, o-{5-[4-(2-{3-[(S)-1-methylpropylamino]-1-propynyl}-4-pyrimidinyl)-1,4-diazepan-1-yl]-6-amino-3-pyridazinyl}phenol]"
50 to 500,30 to 70,50 to 500,+++ (+++=>70%),"C[C@@H]1CCN(c2cc(-c3ccccc3O)nnc2N)CCN1c1ccnc(C#CCN2CC3CCC(C2)O3)n1 [Compound P-183, o-{5-[(R)-5-methyl-4-(2-{3-(8-oxa-3-azabicyclo[3.2.1]oct-3-yl)-1-propynyl}-4-pyrimidinyl)-1,4-diazepan-1-yl]-6-amino-3-pyridazinyl}phenol]"

SMILES,DC50 [1] [nM],inhibition at 1 µM [1] [%],DC50 [2] [nM],SMARCA2 % Degradation @ 1 μM [2]
Nc1nnc(-c2ccccc2O)cc1N1CC2CCC(C1)N2c1ccnc(C#CCn2ccnc2)n1 [Compound P-290],50 to 500,< 30,50 to 500,++ (++=30-70%)
"Nc1nnc(-c2ccccc2O)cc1N1C2CC1CN(c1ccnc(C#CCNC(=O)c3cc4ncccn4n3)n1)C2 [Compound P-80, N-(3-(4-(6-(3-amino-6-(2-hydroxyphenyl)pyridazin-4-yl)-3,6-diazabicyclo[3.1.1]heptan-3-yl)pyrimidin-2-yl)prop-2-yn-1-yl)pyrazolo[1,5-a]pyrimidine-2-carboxamide]",> 5000,< 30,500 to 5000,+ (+=<30%)
